From patent US11999727B2 (Tango Therapeutics, Inc., priority 2020, dated 2024) come the findings set out here.

In assay [1] the target is T1, PRMT5 (Homo sapiens, UniProt O14744).
T1 construct: purchased Viva (custom protein)
As to the kind of experiment: PRMT5 biochemical IC50 assay with no cofactor. Conditions: PRMT5, no cofactor; read-out: No Cofactor/rel IC50. The text has this: Table 1 indicates IC50 values (μM) against PRMT5 for exemplary compounds in the presence of SAM as cofactor, with no cofactor, and with MTA as cofactor, respectively (columns 4-6). […] Ki values can be calculated from the IC50 values as described in the Examples section. As detailed in the Examples section, for the assay performed in the presence of SAM, IC50=Ki×1.5 (Ki=IC50/1.5).

In assay [2] the test system is HAP1 MTAP-deleted cell line. In words: SDMA in-cell western assay, HAP1 MTAP-deleted. The assay is classed as cell-based. To be noted: for IC50: Homo sapiens, HAP1, SDMA in-cell western, HAP1 MTAP-deleted, read-out: HAP 1 MTAP deleted IC50; for MTAP intact/deleted ratio: IC50 ratio HAP1 MTAP-intact / HAP1 MTAP-deleted, SDMA in-cell western. An outline of the steps:
(§1)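 Readout: in-cell western detection of SDMA. Cells: HAP1 expressing endogenous MTAP and an MTAP-null HAP1 counterpart. Output: IC50.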

The target in assay [3] is T1, PRMT5. In words: PRMT5 biochemical IC50 assay with MTA as cofactor. Conditions: PRMT5, MTA as cofactor; read-out: MTA IC50.
Assay [4] has as its system HAP1 MTAP-intact cell line. As to the kind of experiment: SDMA in-cell western assay, HAP1 MTAP-intact. It counts as cell-based. To be noted: Homo sapiens, HAP1, SDMA in-cell western, HAP1 MTAP-intact; read-out: MTAP HAP1 intact IC50. An outline of the steps:
as §1

The target in assay [5] is T1, PRMT5. In words: PRMT5 biochemical IC50 assay with SAM as cofactor. To be noted: PRMT5, SAM as cofactor; read-out: SAM IC50.
For assay [6], the system named is HAP1 MTAP-deleted cell line. In words: Viability assay, MTAP-deleted cell line. To be noted: Homo sapiens, HAP1, viability assay, MTAP-deleted cell line; read-out: HAP1 MTAP deleted viability. The assay is classed as cell-based. An excerpt: Table 1 additionally indicates IC50 values in a viability assay for the MTAP-deleted cell line (column 10), indicating the effect of treatment with compound on cell survival.

T1 sequence (O14744 whole entry): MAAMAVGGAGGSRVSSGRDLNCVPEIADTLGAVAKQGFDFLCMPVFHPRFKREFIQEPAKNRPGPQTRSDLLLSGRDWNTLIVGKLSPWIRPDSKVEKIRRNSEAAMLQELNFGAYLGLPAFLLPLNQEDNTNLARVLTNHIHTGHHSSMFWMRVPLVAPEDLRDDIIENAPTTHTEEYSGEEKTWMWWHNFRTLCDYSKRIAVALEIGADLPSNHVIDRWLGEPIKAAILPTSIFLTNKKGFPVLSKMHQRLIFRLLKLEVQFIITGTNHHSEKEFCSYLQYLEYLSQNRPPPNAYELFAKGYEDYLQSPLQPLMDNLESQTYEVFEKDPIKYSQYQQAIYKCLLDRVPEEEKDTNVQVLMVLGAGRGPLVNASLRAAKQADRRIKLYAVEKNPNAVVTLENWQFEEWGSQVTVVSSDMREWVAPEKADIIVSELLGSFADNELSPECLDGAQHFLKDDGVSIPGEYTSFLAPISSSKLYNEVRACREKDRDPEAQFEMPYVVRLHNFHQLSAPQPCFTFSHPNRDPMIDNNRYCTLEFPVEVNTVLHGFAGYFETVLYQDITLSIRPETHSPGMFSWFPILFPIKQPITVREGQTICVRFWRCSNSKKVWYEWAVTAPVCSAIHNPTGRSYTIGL
T1 sequence (Q9BQA1 whole entry partner): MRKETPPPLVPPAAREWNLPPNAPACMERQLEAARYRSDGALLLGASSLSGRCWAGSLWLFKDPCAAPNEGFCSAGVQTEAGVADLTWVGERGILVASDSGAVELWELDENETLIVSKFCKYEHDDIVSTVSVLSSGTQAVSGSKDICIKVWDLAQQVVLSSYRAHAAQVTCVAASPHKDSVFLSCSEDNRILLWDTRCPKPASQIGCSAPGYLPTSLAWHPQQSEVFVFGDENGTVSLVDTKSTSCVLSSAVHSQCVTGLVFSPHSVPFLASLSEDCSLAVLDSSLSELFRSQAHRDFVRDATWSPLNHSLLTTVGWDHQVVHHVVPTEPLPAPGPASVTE

For the compound `Cc1cc(NC(=O)C(=O)N2C[C@H](C)CC[C@H]2c2ccc(-c3cncs3)cc2)cnc1N` (single isomer, unassigned) [Compound 900, N-(6-amino-5-methylpyridin-3-yl)-2-(5-methyl-2-(4-(thiazol-5-yl)phenyl)piperidin-1-yl)-2-oxoacetamide], the IC50 in assay [1] was greater than 500 nM; in assay [2] it was greater than 1000 nM; in assay [3], greater than 500 nM; in assay [4] it was greater than 1000 nM; in assay [5], greater than 500 nM; in assay [6], greater than 10000 nM. The MTAP intact/deleted ratio entry in assay [2] is given as “C (an IC50 ratio of less than 3 fold)”.
Take `Cc1cc(NC(=O)C(=O)N2C[C@@H](C)CC[C@@H]2c2cccc(S(C)(=O)=O)c2)cnc1N` (single isomer, unassigned) [Compound 901]: the IC50 in assay [1] is greater than 500 nM; in assay [2] it was greater than 1000 nM; in assay [3], greater than 500 nM; in assay [4], greater than 1000 nM; in assay [5], greater than 500 nM; in assay [6] it was greater than 10000 nM. Also, the MTAP intact/deleted ratio result in assay [2] is reported as “C (an IC50 ratio of less than 3 fold)”.
For `CCc1cc(NC(=O)C(=O)N2C[C@@H](C)CC[C@@H]2c2ccc(NS(C)(=O)=O)cc2)cnc1N` (single isomer, unassigned) [Compound 902], the IC50 in assay [1] is less than 50 nM; in assay [2] it was less than 100 nM; in assay [3], less than 50 nM; in assay [4], 100 to 1000 nM; in assay [5] it was 50 to 500 nM; in assay [6], less than 1000 nM. The MTAP intact/deleted ratio result in assay [2] is on record as “A (an IC50 ratio greater than or equal to 10 fold)”.
On to `Cc1ncc(NC(=O)C(=O)N2C[C@@H](C)CC[C@@H]2c2ccc3c(c2)CCC(=O)N3)cc1C(F)F` (single isomer, unassigned) [Compound 903], for which the IC50 is greater than 500 nM in assay [1]; greater than 1000 nM in assay [2]; greater than 500 nM in assay [3]; greater than 1000 nM in assay [4]; greater than 500 nM in assay [5]; greater than 10000 nM in assay [6]. Besides, the MTAP intact/deleted ratio result in assay [2] is “B (an IC50 ratio greater than or equal to 3 fold but lower than 10 fold)”.
Take `COc1ncc(NC(=O)C(=O)N2C[C@@H](C)C(F)(F)C[C@@H]2c2ccc(C)nc2)cc1C(N)=O` (single isomer, unassigned) [Compound 908]: the IC50 is 50 to 500 nM in assay [1]; less than 100 nM in assay [2]; less than 50 nM in assay [3]; greater than 1000 nM in assay [4]; 50 to 500 nM in assay [5]; 1000 to 10000 nM in assay [6]. In assay [2], the MTAP intact/deleted ratio result is on record as “A (an IC50 ratio greater than or equal to 10 fold)”.
In the case of `COc1ncc(NC(=O)C(=O)N2C[C@@H](C)CC[C@@H]2c2ccc(NC(C)=O)nc2)cc1C(N)=O` (single isomer, unassigned) [Compound 910], the IC50 in assay [1] is greater than 500 nM; in assay [2], greater than 1000 nM; in assay [3] it was greater than 500 nM; in assay [4] it was greater than 1000 nM; in assay [5], greater than 500 nM; in assay [6], greater than 10000 nM. In addition, in assay [2], the MTAP intact/deleted ratio result is listed as “B (an IC50 ratio greater than or equal to 3 fold but lower than 10 fold)”.
For the compound `CCc1cc(NC(=O)C(=O)N2C[C@@H](C)CC[C@@H]2c2ccn(-c3cc[nH]n3)n2)cnc1N` (single isomer, unassigned) [Compound 913], the IC50 is greater than 500 nM in assay [1]; greater than 1000 nM in assay [2]; greater than 500 nM in assay [3]; greater than 1000 nM in assay [4]; greater than 500 nM in assay [5]; greater than 10000 nM in assay [6]. In assay [2], the MTAP intact/deleted ratio entry is on record as “C (an IC50 ratio of less than 3 fold)”.
Regarding `COc1ncc(NC(=O)C(=O)N2C[C@@H](C)CC[C@@H]2c2ccc3cnccc3c2)cc1C(N)=O` (single isomer, unassigned) [Compound 914], the IC50 was less than 50 nM in assay [1]; less than 100 nM in assay [2]; less than 50 nM in assay [3]; 100 to 1000 nM in assay [4]; 50 to 500 nM in assay [5]; less than 1000 nM in assay [6]. In assay [2], the MTAP intact/deleted ratio entry is “A (an IC50 ratio greater than or equal to 10 fold)”.
For `CC(=O)Nc1ccc([C@H]2CC[C@H](C)CN2C(=O)C(=O)Nc2cnc(N)c(C)c2)cn1` (single isomer, unassigned) [Compound 915], the IC50 in assay [1] is less than 50 nM; in assay [2], less than 100 nM; in assay [3] it was less than 50 nM; in assay [4], 100 to 1000 nM; in assay [5], 50 to 500 nM; in assay [6], 1000 to 10000 nM. For the same compound, in assay [2], the MTAP intact/deleted ratio entry was “A (an IC50 ratio greater than or equal to 10 fold)”.
Take `COc1ncc(NC(=O)C(=O)N2C[C@H](C)CC[C@H]2c2ccc3[nH]c(C)nc3c2)cc1C(N)=O` (single isomer, unassigned) [Compound 917]: the IC50 is less than 50 nM in assay [1]; less than 100 nM in assay [2]; less than 50 nM in assay [3]; greater than 1000 nM in assay [4]; 50 to 500 nM in assay [5]; 1000 to 10000 nM in assay [6]. Also, the MTAP intact/deleted ratio result in assay [2] is listed as “A (an IC50 ratio greater than or equal to 10 fold)”.
As for `COc1ncc(NC(=O)C(=O)N2C[C@@H](C)CC[C@@H]2c2cccc3[nH]ncc23)cc1C(N)=O` (single isomer, unassigned) [Compound 918], the IC50 in assay [1] was 50 to 500 nM; in assay [2], less than 100 nM; in assay [3], less than 50 nM; in assay [4], greater than 1000 nM; in assay [5] it was 50 to 500 nM; in assay [6] it was less than 1000 nM. Besides, the MTAP intact/deleted ratio result in assay [2] is “A (an IC50 ratio greater than or equal to 10 fold)”.
In the case of `CCc1cc(NC(=O)C(=O)N2C[C@H](C)CC[C@H]2c2ccc3cnccc3c2)cnc1N` (single isomer, unassigned) [Compound 919], the IC50 in assay [1] is less than 50 nM; in assay [2], less than 100 nM; in assay [3], less than 50 nM; in assay [4], 100 to 1000 nM; in assay [5] it was 50 to 500 nM; in assay [6], less than 1000 nM. The MTAP intact/deleted ratio entry in assay [2] was “A (an IC50 ratio greater than or equal to 10 fold)”.
On to `CCc1cc(NC(=O)C(=O)N2C[C@H](C)CC[C@H]2c2ccc(NC(C)=O)nc2)cnc1N` (single isomer, unassigned) [Compound 921], for which the IC50 in assay [1] is greater than 500 nM; in assay [2] it was greater than 1000 nM; in assay [3], greater than 500 nM; in assay [4] it was greater than 1000 nM; in assay [5], greater than 500 nM; in assay [6], greater than 10000 nM. For the same compound, in assay [2], the MTAP intact/deleted ratio result is listed as “B (an IC50 ratio greater than or equal to 3 fold but lower than 10 fold)”.
With `COc1ncc(NC(=O)C(=O)N2C[C@@H](C)CC[C@@H]2c2ccc3[nH]c(C)nc3c2)cc1C(N)=O` (single isomer, unassigned) [Compound 924], the IC50 in assay [1] is greater than 500 nM; in assay [2], greater than 1000 nM; in assay [3], greater than 500 nM; in assay [4] it was greater than 1000 nM; in assay [5] it was greater than 500 nM; in assay [6], greater than 10000 nM. Moreover, the MTAP intact/deleted ratio result in assay [2] is given as “B (an IC50 ratio greater than or equal to 3 fold but lower than 10 fold)”.
As to `CCc1cc(NC(=O)C(=O)N2C[C@@H](C)CC[C@@H]2c2ccc(NC(C)=O)nc2)cnc1N` (single isomer, unassigned) [Compound 925], the IC50 was less than 50 nM in assay [1]; less than 100 nM in assay [2]; less than 50 nM in assay [3]; 100 to 1000 nM in assay [4]; 50 to 500 nM in assay [5]; less than 1000 nM in assay [6]. The MTAP intact/deleted ratio result in assay [2] is listed as “A (an IC50 ratio greater than or equal to 10 fold)”.
